# System: HLA-A2
# Assay: Blue peptide (Cy5-labeled HBVc) kinetic and isotherm determination
# Assay type: binding, human
# Procedure: In short, for kon measurements on T2 (HLA-A2^pos) and C1R-A3 (HLA-A2^neg) cells, baseline Cy5 cell auto-fluorescence was recorded for 30s with an LSRII instrument. Titrated amounts of Cy5-labeled HBVc blue peptide (from 1 pM to 1 uM final concentration) were then added to the tube and association of the blue peptide to HLA-A2 was recorded for 5 minutes. For koff dissociation assays, 2x10^6 HLA-A2^pos (T2) and HLA-A2^neg (C1R-A3) cells were stained with 1 μM blue peptide and incubated for 1h in the dark. After washing, baseline Cy5 staining was recorded for 30s, before adding excess of FACS buffer and recording fluorescence intensity (gMFI) for 1h under temperature control. Additionally, isotherm titration experiments were performed to validate the value of the blue peptide dissociation equilibrium constant KD. Cells were stained with titrated amounts of the blue peptide (from 1 pM to 1 uM) for 1h at 4°C or 37°C. After washing, Cy5 gMFI was recorded on an LSRII instrument to determine concentration-associated maximal staining at equilibrium conditions (n = 5). All kinetic and isotherm analyses were done with the corresponding best fit equations using Prism software (GraphPad, v.9.1.1) and correction of non-specific staining values found on control HLA-A2^neg cells (nonlinear regression for kon = association kinetics - one conc. of ligand, for koff = dissociation/one phase exponential decay and for KD = one site - total and nonspecific binding).
# [1] = HLA-A2pos and HLA-A2neg cells in parallel, flow cytometry
substance,measurement,setting,value
FLPSDC*-(Cy5)-FPSV [blue peptide],peptide:HLA association kon,[1],23000 M⁻¹ s⁻¹
same,peptide:HLA dissociation koff,[1],0.0012 s⁻¹
same,Kd,"T2 (HLA-A2pos) vs C1R-A3 (HLA-A2neg) cells, isotherm titration 1 pM to 1 uM, 1h, n = 5, read-out: equilibrium dissociation constant KD for HLA-A2",52.6 nM
